Source: US4743614A, “Amino acid derivatives and processes for preparation thereof” (Fujisawa Pharmaceutical Co., Ltd., priority 1985, dated 1988)

Columns and labels:
[1] = system: colony forming abilities of bone marrow cells (CFU-c); test: Restorative effect on suppressed colony forming abilities of bone marrow cells in immunodeficient hosts (mitomycin C-treated mice); format: in vivo, BDF1 mice; conditions: mitomycin C 1 mg/kg for 2 days, day 9, n = 7-9, **P < 0.01
Method: Restorative effect on suppressed colony forming abilities of bone marrow cells in immunodeficient hosts: BDF1 mice (female, 8 weeks aged) were obtained from Shizuoka Agricultural Cooperative Association for Laboratory Animal, Hamamatsu, Japan. The mice were intraperitoneally injected with mitomycin C (1 mg/kg) every day for 2 days and FR-900490 was also administered to mice intraperitoneally every day for 5 days. At 9th day after first administration of mitomycin C, mice were sacrificed and the colony forming abilities of bone marrow cells (CFU-c) were measured. The schedule of the above test is shown below. [drawing 6] Femoral marrow was harvested from mice by flushing the bone cavity with α-Minimum Essential Medium (α-MEM) supplemented with penicillin G (100 units/ml), streptomycin (100 μg/ml) and 5% fetal bovine serum (FBS). The bone marrow cells were pelleted by centrifugation (500×g, 10 minutes) and resuspended in enriched α-MEM. Mononuclear cells were counted in a hemocytometer and the cells were diluted to 1 ×10^5 cells/ml. Then, 1 ml of bone marrow cells, 1 ml of FBS, 2 ml of 2.2% methyl cellulose in α-MEM and 1 ml of L-929 cell conditioned medium were added to a sterilized tube and mixed by use of automatic mixer. One ml of mixture was plated in 35 mm plastic petri dish and incubated for 7 days in a fully humidified atmosphere of 5% CO2 in air. Triplicate plates were prepared for each experiment. Colonies composed of 50 or more cells were scored on an inverted microscope.

B-16 melanoma = test: Inhibitory activity for tumor metastasis; format: in vivo, BDF1 mice; conditions: 14th day after B-16 melanoma injection, n = 10, **P < 0.01
Method: Inhibitory activity for tumor metastasis
B-16 Melanoma cells were grown in a Roswel park memorial Institute (RPMI)-1640 medium supplemented with penicillin G (100 units/ml), streptomycin (100 μg/ml) and 10% FBS to subsconfiluency, and the monolayers were rinsed with an aqueous solution of trypsin. Hanks' balanced salt (HBS) solution (Ca-Mg-free) containing the antibiotics described above was added to the monolayers and the monolayer was dislodged by gentle pipetting, and the cells were washed with HBS solution containing the antibiotics described above by centrifugation. The cells were resuspended in HBS solution containing the antibiotics described above and kept at cold temperature. BDF1 mice (female, 8 weeks aged) were injected intravenously with 2×10^5 cells of B-16 melanoma in 0.2 ml of HBS solution containing the antibiotics described above. FR-900490 was intraperitoneally administered once a day at one day and two days before and at one day and four days after the injection of B-16 melanoma. At 14th day after injection of B-16 melanoma, the mice were killed, and the lungs were removed, rinsed in distilled water containing heparin and the number of tumor foci was determined by counting the surface colonies under a dissecting microscope.
The schedule of the above test is shown. [drawing 7]

[2] = system: direct plaque forming cells (PFC-SRBC); test: Restorative effect on suppressed antibody forming abilities in immunodeficient hosts; format: in vivo, BDF1 mice
Method: Restorative Effect on Suppressed Antibody Forming Abilities in Immunodeficient Hosts
BDF1 mice (female, 8 weeks aged) were injected intraperitoneally with Mitomycin C (1 mg/kg) from four days before immunization with 5×10^8 Sheep Red Blood Cells (SRBC), every day for three days. Test samples also were administered to mice intraperitoneally from four days before immunization, every day for five days. At day 9, mice were sacrificed and the number of direct plaque forming cells per spleen (PFC-SRBC/spleen) was measured by using Cunningham modification method.
The schedule of the above test is shown. [drawing 8]

Solubility = format: physicochemical

- Solubility (Solubility; Ethyl acetate): Insoluble
- Solubility (Solubility; Methanol): Sparingly soluble
- Solubility (Solubility; Water): Soluble
- Solubility (Solubility; acetone): Insoluble
- Solubility (Solubility; chloroform): Insoluble
- Solubility (Solubility; ethanol): Sparingly soluble
Compound: C[C@@H](N[C@@H](Cc1c[nH]cn1)C(=O)O)[C@H](NC(=O)[C@@H](N)CC(N)=O)C(=O)O [FR-900490, (2S,3R)-2-[[(2S)-2-amino-3-carbamoylpropionyl]amino]-3-[[(1S)-1-carboxy-2-(4-imidazolyl)ethyl]amino]butyric acid]
- CFU-c (mean ± SE) ([1]; 1 mg/kg i.p. every day for 5 days): 59.3 ± 2.86
- CFU-c (mean ± SE) ([1]; 10 mg/kg i.p. every day for 5 days): 70.4 ± 6.9
- CFU-c (mean ± SE) ([1]; 100 mg/kg i.p. every day for 5 days): 57.2 ± 2.51
- No. of colonies on the lung mean ± SE (B-16 melanoma; 1 mg/kg i.p.): 39.7 ± 6.4
- No. of colonies on the lung mean ± SE (B-16 melanoma; 10 mg/kg i.p.): 23.4 ± 3.3
- No. of colonies on the lung mean ± SE (B-16 melanoma; 100 mg/kg i.p.): 77.9 ± 27.4
- PFC-SRBC/spleen (average number of 5 mice/group) ([2]; 3 mg/kg i.p., mitomycin C-treated): 14.96 × 10^4 PFC-SRBC/spleen
- PFC-SRBC/spleen (average number of 5 mice/group) ([2]; 10 mg/kg i.p., mitomycin C-treated): 17.49 × 10^4 PFC-SRBC/spleen
- PFC-SRBC/spleen (average number of 5 mice/group) ([2]; 30 mg/kg i.p., mitomycin C-treated): 16.30 × 10^4 PFC-SRBC/spleen
- PFC-SRBC/spleen (average number of 5 mice/group) ([2]; 100 mg/kg i.p., animals not administered mitomycin C): 16.83 × 10^4 PFC-SRBC/spleen
- PFC-SRBC/spleen (average number of 5 mice/group) ([2]; 100 mg/kg i.p., mitomycin C-treated): 21.12 × 10^4 PFC-SRBC/spleen
